In assay [1] the target is T1, Corticotropin-releasing factor receptor 1 (Mus musculus, UniProt P35347).
T1 sequence (P35347 whole entry): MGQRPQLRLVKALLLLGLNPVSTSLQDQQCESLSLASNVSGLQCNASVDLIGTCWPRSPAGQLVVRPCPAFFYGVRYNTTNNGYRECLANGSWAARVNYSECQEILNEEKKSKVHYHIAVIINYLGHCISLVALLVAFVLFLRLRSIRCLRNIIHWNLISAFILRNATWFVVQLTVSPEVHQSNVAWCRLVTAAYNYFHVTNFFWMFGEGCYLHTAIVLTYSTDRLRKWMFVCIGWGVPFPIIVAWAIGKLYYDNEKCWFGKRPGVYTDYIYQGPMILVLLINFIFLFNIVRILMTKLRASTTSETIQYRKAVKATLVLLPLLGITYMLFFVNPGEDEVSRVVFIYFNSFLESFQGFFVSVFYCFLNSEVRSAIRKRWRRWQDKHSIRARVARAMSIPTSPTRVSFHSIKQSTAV
Put plainly: In vitro effective concentration for mouse corticotropin releasing factor 1 receptor.

For assay [2], the target named is Corticotropin-releasing factor receptor 2 (Mus musculus, UniProt Q60748). Put plainly: In vitro effective concentration for mouse corticotropin releasing factor 2 receptor.
Sequence of Corticotropin-releasing factor receptor 2 (Q60748 whole entry): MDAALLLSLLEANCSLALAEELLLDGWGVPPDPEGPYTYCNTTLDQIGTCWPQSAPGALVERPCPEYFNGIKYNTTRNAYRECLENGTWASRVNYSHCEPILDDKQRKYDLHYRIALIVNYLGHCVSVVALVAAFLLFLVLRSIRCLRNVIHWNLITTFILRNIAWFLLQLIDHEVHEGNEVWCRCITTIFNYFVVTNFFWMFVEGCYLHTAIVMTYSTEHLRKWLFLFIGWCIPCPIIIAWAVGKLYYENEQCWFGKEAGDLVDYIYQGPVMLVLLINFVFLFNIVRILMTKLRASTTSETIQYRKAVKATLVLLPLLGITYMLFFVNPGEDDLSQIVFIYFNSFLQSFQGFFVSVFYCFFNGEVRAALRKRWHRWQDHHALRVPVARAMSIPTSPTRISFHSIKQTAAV
Assay [3] concerns the target T2, Corticotropin-releasing factor receptor 1 (Mus musculus) (UniProt P35347).
T2 sequence (whole entry): T1 sequence (P35347 whole entry)
Put plainly: In vitro agonistic activity against mouse corticotropin releasing factor 1 receptor. In kind it is functional.

In assay [4] the target is Corticotropin-releasing factor receptor 2 (Mus musculus) (UniProt Q60748). Put plainly: In vitro agonistic activity against mouse corticotropin releasing factor 2 receptor. It is filed as functional.
Sequence of Corticotropin-releasing factor receptor 2 (Mus musculus) (Q60748 whole entry): as above
The species entered for assay [5] is Mus musculus. Put plainly: Selectivity ratio of EC50s for mouse corticotropin releasing factor receptors 1 and 2.

pEC50: −log10 of the molar value.

What is called pEC50 is −log10 of the EC50, conventionally taken in molar units. Read a low pEC50 as a large EC50. Usually Emax stands for the greatest response seen or fitted, relative to the assay's reference. On to `CC[C@H](C)[C@H](NC(=O)[C@@H](NC(=O)[C@H](CC(=O)O)NC(=O)[C@H](CC(C)C)NC(=O)[C@H](CC(C)C)NC(=O)[C@H](CC(C)C)NC(=O)[C@H](CCCN=C(N)N)NC(=O)[C@H](CC(N)=O)NC(=O)[C@H](CC(N)=O)NC(=O)[C@H](C)NC(=O)[C@H](C)NC(=O)[C@H](CCC(N)=O)NC(=O)[C@H](CCC(N)=O)NC(=O)[C@H](CCCCN)NC(=O)[C@H](CCC(=O)O)NC(=O)[C@H](CCCCN)NC(=O)[C@H](CCC(=O)O)NC(=O)[C@H](CCC(N)=O)NC(=O)[C@H](CCCCN)NC(=O)[C@H](CCC(=O)O)NC(=O)[C@@H](NC(=O)[C@H](CCC(=O)O)NC(=O)[C@@H](NC(=O)[C@H](CCSC)NC(=O)[C@H](CCCCN)NC(=O)[C@H](CCCN=C(N)N)NC(=O)[C@H](CC(C)C)NC(=O)[C@H](CC(C)C)NC(=O)[C@H](Cc1ccc(O)cc1)NC(=O)[C@H](C)NC(=O)[C@@H]1CCCN1C(=O)[C@H](CC(C)C)NC(=O)[C@H](CC(=O)O)NC(=O)[C@@H](NC(=O)[C@H](CO)NC(=O)[C@@H](NC(=O)[C@@H]1CCCN1C(=O)[C@@H]1CCCN1C(=O)CNC(=O)[C@@H]1CCC(=O)N1)[C@@H](C)CC)[C@@H](C)CC)[C@@H](C)CC)[C@@H](C)CC)[C@@H](C)O)C(=O)O`, for which the pEC50 is 6.22 in assay [1] and 7.69 in assay [2]. For the same molecule, the results for the Emax in assay [3] and in assay [4] were 95% and 98%, respectively. Further, the Selectivity in assay [5] is 30.

Consider `CC[C@H](C)[C@H](NC(=O)[C@@H](NC(=O)[C@H](CC(=O)O)NC(=O)[C@H](CC(C)C)NC(=O)[C@H](CC(C)C)NC(=O)[C@H](CC(C)C)NC(=O)[C@H](CCCN=C(N)N)NC(=O)[C@H](CC(N)=O)NC(=O)[C@H](CC(N)=O)NC(=O)[C@H](C)NC(=O)[C@H](C)NC(=O)[C@H](CCC(N)=O)NC(=O)[C@H](CCC(N)=O)NC(=O)[C@H](CCCCN)NC(=O)[C@H](CCC(=O)O)NC(=O)[C@H](CCCCN)NC(=O)[C@H](CCC(=O)O)NC(=O)[C@H](CCC(N)=O)NC(=O)[C@H](CCCCN)NC(=O)[C@H](CCC(=O)O)NC(=O)[C@@H](NC(=O)[C@H](CCC(=O)O)NC(=O)[C@@H](NC(=O)[C@H](CCSC)NC(=O)[C@H](CCCCN)NC(=O)[C@H](CCCN=C(N)N)NC(=O)[C@H](CC(C)C)NC(=O)[C@H](CC(C)C)NC(=O)[C@H](Cc1ccccc1)NC(=O)[C@@H](NC(=O)[C@@H]1CCCN1C(=O)[C@H](CC(C)C)NC(=O)[C@H](CC(=O)O)NC(=O)[C@@H](NC(=O)[C@H](CO)NC(=O)[C@@H](NC(=O)[C@@H]1CCCN1C(=O)[C@@H]1CCCN1C(=O)CNC(=O)[C@@H]1CCC(=O)N1)[C@@H](C)CC)[C@@H](C)CC)[C@@H](C)O)[C@@H](C)CC)[C@@H](C)CC)[C@@H](C)O)C(=O)O`, for which the pEC50 was 6.03 in assay [1] and 7.72 in assay [2]. Further, the Emax was 64% in assay [3] and 87% in assay [4]. Also, in assay [5], the Selectivity came out at 49.

These data come from ChEMBL document CHEMBL1139487, “Discovery of corticotropin releasing factor 2 receptor selective sauvagine analogues for treatment of skeletal muscle atrophy” (J Med Chem, 2005).
